Assay results from ChEMBL document CHEMBL3714768 (2012).

Columns and labels:
[1] = Selectivity index, ratio of IC50 for purified human red blood cell PP2A (unknown origin) to IC50 for purified rabbit skeletal muscle PP1
MCF7 = test: Cytotoxicity against human MCF7 cells by fluorescent Calcein-AM assay; assay type: functional, cell-based
[2] = Cytotoxicity against human DU145 cells by fluorescent Calcein-AM assay; assay type: functional, cell-based; details: du-145
[3] = Cytotoxicity against human HCT116 cells by fluorescent Calcein-AM assay; assay type: functional, cell-based; details: hct-116
[4] = molecular target: Serine/threonine-protein phosphatase PP1-alpha catalytic subunit (Oryctolagus cuniculus, UniProt P62139); test: Inhibition of purified rabbit skeletal muscle protein phosphatase 1 using DiFMUP substrate incubated for 30 mins
Chain of Serine/threonine-protein phosphatase PP1-alpha catalytic subunit (P62139 whole entry): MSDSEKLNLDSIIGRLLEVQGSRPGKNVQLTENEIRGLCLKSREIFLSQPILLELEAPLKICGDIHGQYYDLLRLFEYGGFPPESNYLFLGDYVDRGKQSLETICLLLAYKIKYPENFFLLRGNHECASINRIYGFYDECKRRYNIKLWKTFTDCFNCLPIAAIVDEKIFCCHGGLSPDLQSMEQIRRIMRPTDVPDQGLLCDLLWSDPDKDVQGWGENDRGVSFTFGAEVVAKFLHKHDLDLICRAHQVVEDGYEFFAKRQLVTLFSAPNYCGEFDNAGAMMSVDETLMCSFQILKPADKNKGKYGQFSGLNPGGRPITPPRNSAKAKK

For `CCC(/C=C/C(=O)O)=C\CC[C@H](C)C[C@@H](C)CC[C@H](O)[C@H](C)C(=O)C[C@@H](O)[C@H](C)[C@@H](C)OC(=O)C[C@@H](O)C1=C(C)C(=O)OC1=O`, the Ratio IC50 [1] was 4, the IC50 (MCF7) was “Not Active” and the IC50 [2] was “Not Active”. For the same molecule, the IC50 [3] was “Not Active”.

Molecule `CCC(/C=C/C(=O)O)=C\C(=O)C[C@H](C)C[C@@H](C)CC[C@H](O)[C@H](C)C(=O)C[C@@H](O)[C@H](C)[C@@H](C)OC(=O)C[C@@H](O)C1=C(C)C(=O)OC1=O` has an IC50 [4] of 28 µM.

For `CC/C(=C\CC[C@H](C)C[C@@H](C)CC[C@H](O)[C@H](C)C(=O)C[C@@H](O)[C@H](C)[C@@H](C)OC(=O)C[C@@H](O)C1=C(C)C(=O)OC1=O)C(O)CC(=O)O` (some centres undefined), the Ratio IC50 [1] was 3.8, the IC50 (MCF7) was “Not Active” and the IC50 [2] was “Not Active”. The IC50 [3] was “Not Active”.

With `CCC(/C=C/C(=O)O)=C\[C@@H](O)C[C@H](C)C[C@@H](C)CC[C@H](O)[C@H](C)C(=O)C[C@@H](O)[C@H](C)[C@@H](C)OC(=O)C[C@@H](O)C1=C(C)C(=O)OC1=O` the Ratio IC50 [1] was 4.5, the IC50 (MCF7) was “Not Active” and the IC50 [2] was “Not Active”. For the same molecule, the IC50 [3] was “Not Active”.

Molecule `CCC(/C=C/C(=O)O)=C\[C@H](O)C[C@H](C)C[C@@H](C)CC[C@H](O)[C@H](C)C(=O)C[C@@H](O)[C@H](C)[C@@H](C)OC(=O)C[C@@H](O)C1=C(C)C(=O)OC1=O` has a Ratio IC50 [1] of 3.8.
